Experimental data from PubChem BioAssay (NCI).
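A five-concentration, 48-hour dose response in 96-well plates underlies each endpoint, interpolated linearly between surrounding concentrations. TGI denotes the concentration required for complete inhibition of growth.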

Tests used:
Assay in all cases: NCI anticancer screen, dose series, 48 h
[1] = test system: IGROV1 ovarian
[2] = test system: UO-31 renal
[3] = test system: OVCAR-5 ovarian
[4] = test system: NCI-H522 lung
[5] = test system: UACC-257 melanoma
[6] = test system: SF-268 CNS
[7] = test system: A549 NSCLC
[8] = test system: COLO 205 colon
[9] = test system: SK-OV-3 ovarian
[10] = test system: 786-0 renal
[11] = test system: SR leukemia
[12] = test system: MOLT-4 leukemia
[13] = test system: U251 CNS
[14] = test system: T-47D breast
[15] = test system: MDA-MB-435
[16] = test system: RPMI-8226 leukemia
[17] = test system: HCT-15 colon
[18] = test system: EKVX NSCLC
[19] = test system: HCC-2998 colon
[20] = test system: SW-620 colon
[21] = test system: HOP-92 NSCLC
[22] = test system: PC-3 prostate
[23] = test system: BT-549 breast
[24] = test system: MDA-N
[25] = test system: SF-295 CNS
[26] = test system: ACHN renal
[27] = test system: NCI-H23 lung
[28] = test system: SK-MEL-5 melanoma
[29] = test system: SNB-19 CNS
[30] = test system: TK-10 renal
[31] = test system: SNB-75 CNS
[32] = test system: HT29 colon
[33] = test system: OVCAR-3 ovarian
[34] = test system: KM12 colon
[35] = test system: SF-539 CNS
[36] = test system: MDA-MB-231 breast
[37] = test system: NCI/ADR-RES ovarian
[38] = test system: NCI-H226 lung
[39] = test system: HOP-62 NSCLC
[40] = test system: OVCAR-4 ovarian
[41] = test system: SK-MEL-2 melanoma
[42] = test system: CAKI-1 renal
[43] = test system: NCI-H460 lung
[44] = test system: UACC-62 melanoma
[45] = test system: M14 melanoma
[46] = test system: HCT-116 colon
[47] = test system: SK-MEL-28 melanoma
[48] = test system: OVCAR-8 ovarian
[49] = test system: MCF7 breast
[50] = test system: SN12C renal
[51] = test system: A498 renal
[52] = test system: DU-145 prostate
[53] = test system: CCRF-CEM leukemia
[54] = test system: HS 578T breast
[55] = test system: K-562 leukemia
[56] = test system: LOX IMVI melanoma
[57] = test system: RXF 393 renal
[58] = test system: MALME-3M melanoma

Cn1c(=O)oc2nc(-c3ccccc3)cc(C(F)(F)F)c21
TGI [1]: > 100 µM | TGI [2]: > 100 µM | TGI [3]: > 100 µM | TGI [4]: > 100 µM | TGI [5]: > 100 µM | TGI [6]: > 100 µM | TGI [7]: > 100 µM | TGI [8]: > 100 µM | TGI [9]: > 100 µM | TGI [10]: > 100 µM | TGI [11]: > 100 µM | TGI [12]: > 100 µM | TGI [13]: > 100 µM | TGI [14]: > 100 µM | TGI [15]: > 100 µM | TGI [16]: > 100 µM | TGI [17]: > 100 µM | TGI [18]: > 100 µM | TGI [19]: > 100 µM | TGI [20]: > 100 µM | TGI [21]: 81 µM | TGI [22]: > 100 µM | TGI [23]: > 100 µM | TGI [24]: > 100 µM | TGI [25]: > 100 µM | TGI [26]: > 100 µM | TGI [27]: > 100 µM | TGI [28]: > 100 µM | TGI [29]: > 100 µM | TGI [30]: > 100 µM | TGI [31]: > 100 µM | TGI [32]: > 100 µM | TGI [33]: > 100 µM | TGI [34]: > 100 µM | TGI [35]: > 100 µM | TGI [36]: > 100 µM | TGI [37]: > 100 µM | TGI [38]: > 100 µM | TGI [39]: > 100 µM | TGI [40]: > 100 µM | TGI [41]: > 100 µM | TGI [42]: > 100 µM | TGI [43]: > 100 µM | TGI [44]: > 100 µM | TGI [45]: > 100 µM | TGI [46]: > 100 µM | TGI [47]: > 100 µM | TGI [48]: > 100 µM | TGI [49]: > 100 µM | TGI [50]: > 100 µM | TGI [51]: 55.7 µM | TGI [52]: > 100 µM

CCOP(=O)(OCC)/C(=C/c1cccs1)CC(C)=O
TGI [1]: > 100 µM | TGI [2]: > 100 µM | TGI [3]: > 100 µM | TGI [5]: > 100 µM | TGI [6]: > 100 µM | TGI [7]: > 100 µM | TGI [53]: > 100 µM | TGI [8]: > 100 µM | TGI [9]: > 100 µM | TGI [10]: > 100 µM | TGI [12]: > 100 µM | TGI [54]: > 100 µM | TGI [13]: > 100 µM | TGI [14]: > 100 µM | TGI [15]: > 100 µM | TGI [55]: > 100 µM | TGI [17]: > 100 µM | TGI [18]: > 100 µM | TGI [19]: > 100 µM | TGI [20]: > 100 µM | TGI [56]: > 100 µM | TGI [21]: > 100 µM | TGI [22]: > 100 µM | TGI [23]: > 100 µM | TGI [24]: > 100 µM | TGI [25]: > 100 µM | TGI [26]: > 100 µM | TGI [27]: > 100 µM | TGI [28]: > 100 µM | TGI [29]: > 100 µM | TGI [30]: > 100 µM | TGI [31]: > 100 µM | TGI [32]: > 100 µM | TGI [33]: > 100 µM | TGI [34]: > 100 µM | TGI [35]: > 100 µM | TGI [36]: > 100 µM | TGI [37]: > 100 µM | TGI [38]: > 100 µM | TGI [39]: > 100 µM | TGI [40]: > 100 µM | TGI [41]: > 100 µM | TGI [42]: > 100 µM | TGI [43]: > 100 µM | TGI [44]: > 100 µM | TGI [57]: > 100 µM | TGI [45]: > 100 µM | TGI [46]: > 100 µM | TGI [47]: > 100 µM | TGI [48]: > 100 µM | TGI [49]: > 100 µM | TGI [50]: > 100 µM | TGI [51]: > 100 µM | TGI [58]: > 100 µM | TGI [52]: > 100 µM
